Experimental findings from publication PMC8958510 (Journal of Medicinal Chemistry, 2022) are described below.

Each structure is given as a SMILES string. Converted amounts (≈) assume the structure as drawn.

The nature of data set [1]: Microsomal stability, rat liver microsomes. In kind it is in vitro ADME.
Experimental: (§1) Microsomal stability screen. The microsomal stability of the target compounds was
(§2) determined at the Innopharma Drug Screening and Pharmacogenomics Platform (Santiago de
In data set [2] the target is T1, recombinant human AChE (Homo sapiens, UniProt P22303).
T1 construct: purchased Sigma-Aldrich, Milan, Italy
In kind it is biochemical. The settings on record: recombinant human AChE; mean ± SEM; read-out: hAChE IC50.
Experimental: (§3) Human and mouse acetylcholinesterase and human butyrylcholinesterase inhibition
(§4) assay. The inhibitory activity of the target compounds toward recombinant human AChE
(§5) (Sigma-Aldrich, Milan, Italy), recombinant mouse AChE (Bio-Techne, Milan, Italy) and
(§6) human serum BChE (Sigma-Aldrich, Milan, Italy) was assessed by Ellman’s method,8 using
(§7) Stock solutions of the AChEs were prepared by
(§8) dissolving enzyme lyophilized powder (hAChE) or diluting the enzyme commercial solution
(§9) (mAChE) in 0.1 M potassium phosphate (pH 8.0) containing 0.1% Triton X-100, whereas the
(§10) stock solution of hBChE was prepared in 0.1% aq. gelatin and the stock solutions of the
(§11) compounds to be tested were made in MeOH (2-4 mM). The assay solution consisted of 0.02
(§12) unit mL‒1 of the enzyme, 340 M 5,5’-dithiobis(2-nitrobenzoic acid), and 550 M of the
(§13) substrate acetylthiocholine iodide (for AChE assay) or butyrylthiocholine iodide (for BChE
(§14) assay) in 0.1 M potassium phosphate (pH 8.0). Blank solutions containing all components
(§15) except the enzymes were prepared to account for the non-enzymatic hydrolysis of the
(§16) Prior the addition of the substrate, the assay solutions were incubated at 37 °C for 20 min.
(§17) After the addition of the substrate, cuvettes were rapidly transferred into a Jasco V-530
(§18) double beam spectrophotometer equipped with thermostated cuvette holders (37 °C), in order
(§19) for 240 s. For each tested compound, five increasing concentrations were assayed in order to
(§20) achieve inhibition percentages of 20‒80%. Each concentration was assayed in triplicate. IC50
(§21) values were calculated from the inhibition plot (% inhibition vs log[inhibitor]) and are
(§22) expressed as mean ± SEM. Each IC50 value is the average of at least two experiments, each

Data set [3] concerns SH-SY5Y cells. Put plainly: Cytotoxicity in SH-SY5Y cells, propidium iodide stain. In kind it is cell-based, human.
Experimental: Cytotoxicity in SH-SY5Y cells. The cytotoxicity of the target compounds was evaluated in
Minimum Essential Medium / Ham’s-F12 (1:1, v/v) medium (Biowest), supplemented with
non-essential amino acids, 10% fetal bovine serum, 1 mM glutamine and 50 µg mL‒1
gentamycin (all reagents from Gibco, Thermo Fisher Scientific). For the experiments, cells
were seeded at 3 × 10^5 cells mL‒1 (100 µL per well) in 96-well plates (Nunc). After 24 h, the
test compounds were added concentrated from stock solutions in DMSO and culture medium
to triplicate wells to obtain the final different concentrations up to 100 µM in 0.1% DMSO.
Compounds were incubated for further 24 h. At termination, cytotoxicity was analyzed by the
propidium iodide (PI) fluorescence stain assay. All compounds were tested in three
independent experiments using different cell passages. The PI assay measures cell death. PI
enters into the cells with damaged membranes and greatly increases the fluorescence upon
binding to DNA. PI reagent (Molecular Probes) at the final concentration of 7.5 µg mL‒1 was
added to the cells and incubated for 1 h. The resulting fluorescence was measured by a Flx-
death induced by the compounds was calculated from to the fluorescence of treated cells (Ft)
relative to that of control cells (Fmin) and cells incubated with Triton X100 (Fmax) as the 0%
and 100% cell death, respectively [% = ((Ft-Fmin)/(Fmax-Fmin)) × 100]. All compounds
were tested in three independent experiments using different cell passages. LC50 values were
calculated for each experiment and the results are expressed as mean ± SD.
The nature of data set [4]: Kinetic aqueous solubility screen (light scattering). The note with it: 1% DMSO / 99% PBS.
Experimental: Aqueous solubility screen. The kinetic aqueous solubility of the target compounds was
as §2
Compostela, Spain). Ten mM stock solutions of the tested compounds were serially diluted,
NEPHELOstar Plus reader (BMG LABTECH). The results were adjusted to a segmented
linear regression to obtain the maximum concentration in which the compounds were soluble.
Data set [5] has as its target T2, recombinant mouse sEH (Mus musculus, UniProt P34914).
T2 sequence (P34914 1-554): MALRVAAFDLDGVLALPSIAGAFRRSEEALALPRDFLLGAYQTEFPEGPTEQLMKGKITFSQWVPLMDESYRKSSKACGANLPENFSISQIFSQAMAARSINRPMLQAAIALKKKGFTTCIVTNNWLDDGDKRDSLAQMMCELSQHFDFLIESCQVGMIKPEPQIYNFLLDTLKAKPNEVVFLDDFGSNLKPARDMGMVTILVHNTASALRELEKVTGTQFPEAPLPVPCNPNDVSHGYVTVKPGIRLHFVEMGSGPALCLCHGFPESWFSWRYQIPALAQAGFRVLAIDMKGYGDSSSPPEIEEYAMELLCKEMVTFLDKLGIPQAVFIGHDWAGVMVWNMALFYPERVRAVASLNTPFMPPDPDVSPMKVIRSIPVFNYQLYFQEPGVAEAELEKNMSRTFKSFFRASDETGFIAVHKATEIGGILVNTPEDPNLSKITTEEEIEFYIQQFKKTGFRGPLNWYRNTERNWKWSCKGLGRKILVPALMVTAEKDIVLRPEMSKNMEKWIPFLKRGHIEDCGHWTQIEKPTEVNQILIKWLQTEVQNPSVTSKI
The settings on record: read-out: msEH IC50, average of three replicates.
Experimental: Human and mouse soluble epoxide hydrolase inhibition assay. The inhibitory activity of
the target compounds toward human and mouse sEH was determined by a fluorescence-based
assay, using purified recombinant human or mouse sEH proteins and CMNPC as a fluorescent
substrate.6 The enzymes were incubated at 30 °C with the inhibitors ([I]final = 0.4-100,000
nM) for 5 min in 100 mM sodium phosphate buffer (200 µL, pH 7.4) containing 0.1 mg mL‒1
of BSA and 1% of DMSO. The substrate (CMNPC) was then added ([S]final = 5 µM). Activity
was assessed by measuring the appearance of the fluorescent 6-methoxynaphthaldehyde
(Molecular Devices). Results were obtained by regression analysis from a linear region of the
curve and are given as IC50 values, i.e., the concentration of the compound that reduces the
sEH activity by 50%. All measurements were performed in triplicate and the mean is

For data set [6], the target named is T3, human serum BChE (Homo sapiens, UniProt P06276).
T3 construct: human serum BChE (Sigma-Aldrich, Milan, Italy) was assessed by Ellman’s method; purchased Sigma-Aldrich, Milan, Italy; host or cells: human serum
In kind it is biochemical.
Experimental: as §3, §4, §5, §6, §7, §8, §9, §10, §11, §12, §13, §14, §15, §16, §17, §18, §19, §20, §21, §22

The target of data set [7] is PAS of Electrophorus electricus AChE (EeAChE) (Electrophorus electricus, UniProt O42275). As to the kind of experiment: Propidium displacement studies (PAS of AChE). The settings on record: mean ± SD of two independent experiments, read-out: KD (displacement of propidium from PAS). Also noted: purchased Sigma-Aldrich type VI-S. Type of data set: binding.
Experimental: Propidium Displacement Studies.
electricus AChE (EeAChE) (type VI-S, Sigma-Aldrich) was determined using the PAS-
specific ligand propidium iodide (P) (Sigma-Aldrich), following a described procedure.9
Complexation of propidium iodide and AChE leads to a shift in the excitation wavelength.9
Fluorescence intensity was monitored with a Jasco 6200 spectrofluorometer (Jasco Europe,
Italy) using a 0.5 mL quartz cuvette at rt. EeAChE (2 μM) was first incubated with 8 mM
propidium iodide in 1 mM Tris-HCl, pH 8.0 at rt.
prepared in MeOH. In the back titration experiments of the propidium‒AChE complex by
fluorescence emission was determined. KD values were obtained after processing the raw data
values are expressed as mean ± standard deviation (SD) of two independent experiments.
Data set [8] can be described thus: Microsomal stability, mouse liver microsomes. In kind it is in vitro ADME.
Experimental: as §1, §2
For data set [9], the system named is hippocampus of SAMP8 mice. Put plainly: Hippocampal gene expression of inflammatory markers by qPCR in SAMP8 mice. In kind it is in vivo, mouse. The note with it: 2 mg kg^–1 day^–1 oral, 4 weeks, vs control. The protocol: Compostela, Spain). The human, rat and mice pooled microsomes, with a protein content of 20 mg mL‒1, were purchased from Tebu-Xenotech. The compounds were incubated in a 96-well microplate at 37 °C with the microsomes in 50 mM phosphate buffer (pH = 7.4) containing as cofactors 30 mM MgCl2, 10 mM NADP, 100 mM glucose-6-phosphate and 40 […]
Samples (75 µL) were taken from each well at 0, 10, 20, 40 and 60 min and transferred to a microplate. 4 °C Acetonitrile (75 µL) and internal standard (rolipram) were then added for inactivating the microsomes, and water with 0.5% formic acid (30 µL) was subsequently added for improving the chromatographic conditions, keeping the mixtures at 4 °C. The plate was centrifuged at 46,000 g for 30 min at 15 °C and supernatants were taken and analyzed in a UPLC-MS/MS system (UPLC QSM Waters Acquity) using reverse phase Acquity UPLC® HSST3 1.7 μm (2.1 mm × 50 mm, Waters) as the stationary phase, 0.1% formic acid in water (A) / 0.1% formic acid in acetonitrile (B) as the mobile phase, a flow of 0.8 mL min‒1, and the […]
The metabolic stability of the compounds was calculated from the logarithm of the remaining compound at each of the time points studied.
In Vivo Proof-of-Concept of the Dual sEH / AChE Inhibitor […] in SAMP8 Mice Animals and treatment. The senescence-accelerated mouse-prone 8 (SAMP8) is an accelerated aging model established through phenotypic selection from AKR/J mice by […]
abnormal APP and β-amyloid processing and tau pathology, among others. Likewise, SAMP8 […]
and oxidative stress markers are present at early ages and during adultness.15 In this work, 5-month-old male SAMP8 mice were used to perform behavioral and molecular analyses.
Animals were randomly divided into SAMP8 control (n=8) and SAMP8 treated with 12c […]
(n=8, 2 mg kg‒1 day‒1). The animals had free access to food and water and were kept under standard temperature conditions (22 ± 2 °C) and 12-h/12-h light/dark cycles (300 lux/0 lux).
Compound 12c was dissolved in 1.8% (2-hydroxypropyl)-β-cyclodextrin (Sigma-Aldrich, St. […]
A general note: Real-time PCR tracks product formation cycle by cycle.

T3 sequence (P06276 29-602): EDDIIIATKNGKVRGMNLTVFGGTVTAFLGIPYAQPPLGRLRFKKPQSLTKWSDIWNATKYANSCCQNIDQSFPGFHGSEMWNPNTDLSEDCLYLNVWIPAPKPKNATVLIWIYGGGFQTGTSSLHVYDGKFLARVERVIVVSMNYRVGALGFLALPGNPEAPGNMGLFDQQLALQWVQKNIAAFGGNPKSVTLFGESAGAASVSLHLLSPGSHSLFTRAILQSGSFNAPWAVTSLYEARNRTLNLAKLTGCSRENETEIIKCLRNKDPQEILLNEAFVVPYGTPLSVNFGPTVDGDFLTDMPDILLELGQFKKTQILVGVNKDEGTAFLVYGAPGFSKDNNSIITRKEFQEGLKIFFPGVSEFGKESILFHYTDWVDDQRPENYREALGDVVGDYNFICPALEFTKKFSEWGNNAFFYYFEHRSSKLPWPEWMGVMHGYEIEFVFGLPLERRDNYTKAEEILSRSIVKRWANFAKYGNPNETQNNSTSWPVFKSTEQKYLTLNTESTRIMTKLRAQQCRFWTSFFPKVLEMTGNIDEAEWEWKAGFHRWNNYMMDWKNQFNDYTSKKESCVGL
Sequence of PAS of Electrophorus electricus AChE (EeAChE) (O42275 24-633): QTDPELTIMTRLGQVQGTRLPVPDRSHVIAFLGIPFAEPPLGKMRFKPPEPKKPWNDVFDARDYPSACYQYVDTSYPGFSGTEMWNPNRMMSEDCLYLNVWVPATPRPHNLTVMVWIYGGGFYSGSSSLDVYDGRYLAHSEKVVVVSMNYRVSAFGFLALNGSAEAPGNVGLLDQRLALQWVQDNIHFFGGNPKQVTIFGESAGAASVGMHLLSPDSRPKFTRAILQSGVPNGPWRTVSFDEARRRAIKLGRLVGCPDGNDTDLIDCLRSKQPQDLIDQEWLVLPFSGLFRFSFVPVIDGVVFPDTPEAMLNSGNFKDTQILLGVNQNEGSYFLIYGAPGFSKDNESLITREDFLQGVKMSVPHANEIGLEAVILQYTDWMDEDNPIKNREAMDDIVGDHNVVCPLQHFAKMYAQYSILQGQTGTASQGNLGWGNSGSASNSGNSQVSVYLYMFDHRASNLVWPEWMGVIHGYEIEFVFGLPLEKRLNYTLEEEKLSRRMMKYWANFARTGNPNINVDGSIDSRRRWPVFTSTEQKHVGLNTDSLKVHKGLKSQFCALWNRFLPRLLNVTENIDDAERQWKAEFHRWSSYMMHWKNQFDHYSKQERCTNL
T1 sequence (P22303 32-614): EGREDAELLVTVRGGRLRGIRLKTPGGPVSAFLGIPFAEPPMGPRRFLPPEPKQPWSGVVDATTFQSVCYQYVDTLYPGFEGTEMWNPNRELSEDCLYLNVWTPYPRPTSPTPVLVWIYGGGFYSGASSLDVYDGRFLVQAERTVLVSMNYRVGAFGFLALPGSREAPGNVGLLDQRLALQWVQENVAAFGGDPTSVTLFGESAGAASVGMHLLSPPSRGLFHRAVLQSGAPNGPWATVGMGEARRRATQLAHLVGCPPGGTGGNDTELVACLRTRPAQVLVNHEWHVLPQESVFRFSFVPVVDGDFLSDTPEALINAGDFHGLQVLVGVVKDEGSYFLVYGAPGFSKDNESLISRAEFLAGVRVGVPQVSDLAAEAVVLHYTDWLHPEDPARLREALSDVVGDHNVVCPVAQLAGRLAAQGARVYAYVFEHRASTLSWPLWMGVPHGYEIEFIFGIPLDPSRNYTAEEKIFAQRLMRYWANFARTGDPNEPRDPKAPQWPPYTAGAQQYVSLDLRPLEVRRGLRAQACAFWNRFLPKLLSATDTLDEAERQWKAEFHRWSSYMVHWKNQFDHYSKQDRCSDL

`O=C(Nc1ccc(OC(F)(F)F)cc1)NC1CCN(C(=O)CCCCNc2c3c(nc4cc(Cl)ccc24)CCCC3)CC1` [12c, 1-{1-{5-[(6-Chloro-1,2,3,4-tetrahydroacridin-9-yl)amino]pentanoyl}piperidin-4-yl}-3-[4-(trifluoromethoxy)phenyl]urea]: the “% compound remaining unaltered, rat microsomes” value in [1] (after 10 min) is reported as 100%; in [1] (after 20 min), 79%; in data set [1] (after 40 min), 50%. The microsomal CLint at 1 h, 0.05 µM was 26 µL/min/mg in [1] (rat, liver microsomes (pooled), pH 7.4, 37 °C) and 155 µL/min/mg in data set [8] (mouse, liver microsomes (pooled), pH 7.4, 37 °C). Moreover, the half-life at 1 h, 0.05 µM is 26 min in [1] (rat, liver microsomes (pooled), pH 7.4, 37 °C, read-out: t1/2, rat microsomes) and 4 min in data set [8] (mouse, liver microsomes (pooled), pH 7.4, 37 °C, read-out: t1/2, mouse microsomes). Moreover, the amount remaining at 1 h, 0.05 µM in data set [1] (rat, liver microsomes (pooled), pH 7.4, after 1 h of incubation at 37 °C, read-out: % remaining compound, rat microsomes) worked out at 21%; in [8] (mouse, liver microsomes (pooled), pH 7.4, after 1 h of incubation at 37 °C, read-out: % remaining compound, mouse microsomes) it was 2%. The half-maximal inhibitory concentration (IC50) in data set [2] amounted to 12.9 ± 1.6 nM; in [5], 22.5 nM; in data set [6] (human serum BChE, mean ± SEM, n.a. = not active, % inhibition <10% at 100 μM, read-out: hBChE IC50) it was 179 ± 90 nM. The “toxicity to SH-SY5Y cells LD50” value in data set [3] (propidium iodide staining after 24 h of incubation, mean ± SD) is above 100 µM. For the same compound, the “LD50 (SH-SY5Y)” value in data set [3] (supplementary CSV) is given as > 100 ?M. This compound also gave a solubility at 2 h in [4] of 7.5 µM (≈ 4.64 µg/mL). Moreover, the “hBChE potency relative to 6-chlorotacrine” value in data set [6] amounted to 3 fold. For the same compound, the Kd in [7] was 3950 ± 350 nM. In addition, the entries for the “amount of compound, mouse liver microsomes” value in [8] (after 10 min) and in [8] (after 20 min) were 38% and 4%, respectively. Also, the Gfap gene expression entry in data set [9] is reported as “tendency toward reduced gene expression”. Further, the Il-1β gene expression result in data set [9] is “tendency toward reduced gene expression”. Also, the Il-6 gene expression result in data set [9] is “significant reduction”.

A word on the microsomal CLint: it is the rate of metabolic loss divided by the concentration. For orientation: amount remaining means the share of the starting amount still present when the sample was taken. As a reminder, the IC50 is the concentration that gives 50% inhibition. One may read the solubility as the concentration that dissolves in the medium under given conditions. Higher therefore signals a readily soluble substance. In general, Kd refers to the concentration at which binding is half-saturated.
